Experimental data published in PMC9103351, “Effects of the Bark Resin Extract of Garcinia nigrolineata on Chronic Stress-Induced Memory Deficit in Mice Model and the In Vitro Monoamine Oxidases and β-Amyloid Aggregation Inhibitory Activities of Its Prenylated Xanthone Constituents” (Molecules, 2022).

Tests used:
Format in all cases: in vivo, ICR mice
[1] = tested on: UCMS mice; assay: Y-maze test in UCMS mice; conditions: 100 mg/kg/day p.o., vs vehicle-treated UCMS group
Procedure: (§1) Five-week-old male ICR mice (weight: 20–30 g), which were acquired from Nomura Siam International (Pathumwan, Bangkok, Thailand), were maintained at the Animal Unit of the Faculty of Pharmaceutical Sciences, Khon Kaen University. Mice were cared for in accordance with the Guiding Principles for the Care and Use of Animals (NIH Publications No. 80–23, revised in 2011). The facilities sustained a 12 h light/dark cycle, constant temperature (22 ± 2 °C), and humidity (45 ± 2%), with full access to food and drink. The current research was authorized by the Animal Ethics Committee for Use and Care of Khon Kaen University (IACUC-KKU-121/64)
(§2) Mice in the stress groups received mild stressors for 6 weeks. […]
Y-maze test was used to evaluate spontaneous alternation related to a sudden recall, a performance that was previously described by Kraeuter et al. with some modification. […] Mice were allowed to explore the maze for 4 min, during which their number and sequence of arms visits and spontaneous alternations were recorded. […] The measure of the animal recalling a memory is the percentage alternation, which was calculated by the following equation:% Alternation = [(Number of alternations)/(Total arm entries − 2)] × 100

[2] = tested on: UCMS mice; assay: Novel Object Recognition Test (NORT) in UCMS mice; conditions: 100 mg/kg/day p.o.
Procedure: as §1, §2
The NORT is used to investigate the spatial recognition memory associated with the ability to discriminate between two sets of objects that differ in texture, color, and shape. […] The mouse was free to explore the objects for 5 min and the total time spent exploring each object and the percentage discrimination index were recorded. […] The exploration ratio was calculated according to the following equation:% Discrimination index = [(TN − TF)/(TN + TF)] × 100 where, TN = time devoted to the novel object, TF = time devoted to the familiar object.

[3] = tested on: UCMS mice; assay: Lipid peroxidation (TBARs, MDA) in frontal cortex and hippocampus of UCMS mice; conditions: 100 mg/kg/day
Procedure: as §1, §2
The lipid peroxidation was measured in the homogenates of the hippocampus and frontal cortex by using TBARs assay as previously described by Khamphukdee et al.. […] The intensity of the pink-colored complex MDA-TBA condensation indicated the extent of a lipid peroxidation, and their protein contents were quantified by the Bradford assay. The absorbance of the MDA-TBA complex was measured by UV/Visible spectrophotometer (Perkin Elmer Inc., Waltham, MA, USA) at 532 nm. Levels of the MDA were calculated from the MDA standard and presented as nmol MDA/mg protein.

vitamin E
percentage of spontaneous alternation (Y-maze) [1]: significantly increased
discrimination index performance (NORT test phase) [2]: significantly ameliorated
UCMS-induced lipid peroxidation (MDA level) [3]: significant neuroprotection
